The values below come from US20200270309A1, “MALEIMIDE GROUP-MODIFIED ANGIOGENESIS INHIBITOR HM-1 AND USE THEREOF” (NANJING ANJI BIOLOGICAL TECHNOLOGY CO., LTD, priority 2017, published 2020).

Like-named read-outs stand apart in the source and are kept apart here. Peptide text beside a SMILES is read from it. * marks the point of attachment. X18 = O=C1C=CC(=O)N1CCOCCOCCOCCOCCOCCOCCCCCCCC(=O)*; Hexanoyl(6-maleimido) = O=C1C=CC(=O)N1CCCCCC(=O)*; Propanoyl(3-maleimido) = O=C1C=CC(=O)N1CCC(=O)*; X5 = O=C1C=CC(=O)N1CCOCCOCCOCCOCCOCCOCC(=O)*; X19 = O=C1C=CC(=O)N1CCOCCOCCOCCOCCOCC(=O)*; X34 = O=C1C=CC(=O)N1CCOCCOCCOCCCCCC(=O)*; X33 = O=C1C=CC(=O)N1CCOCCOCCOCCCCC(=O)*; X50 = O=C1C=CC(=O)N1c1ccc(CC(=O)*)cc1; X76 = O=C1C=CC(=O)N1CCOCCCCCCCC(=O)*; X32 = O=C1C=CC(=O)N1CCOCCOCCC(=O)*; X57 = O=C1C=CC(=O)N1CCCCCCCC(=O)*; X42 = O=C1C=CC(=O)N1CCOCCC(=O)*

A short description of this data set: Half-lives and pharmacokinetic parameters of polypeptides vs HM-1. Set-up: AUC0-∞: concentration or dose not given beside the values. To be noted: in vivo.
Where [1] appears, read: read-out: T1/2β (half-life) (converted).

As to `C[C@H](NC(=O)CNC(=O)[C@H](CCCNC(=N)N)NC(=O)CCOCCN1C(=O)C=CC1=O)C(=O)N[C@@H](CC(=O)O)C(=O)N[C@@H](CCCNC(=N)N)C(=O)N[C@@H](C)C(=O)NCC(=O)NCC(=O)NCC(=O)NCC(=O)N[C@@H](CCCNC(=N)N)C(=O)NCC(=O)N[C@@H](CC(=O)O)C(=O)O` [X50] (X42-RGADRAGGGGRGD-OH), the AUC(0-inf) (read-out: AUC0-∞) was determined as 26900 ± 7090 ng·h/mL. The clearance (read-out: CL (converted)) is 0.62 mL/min/kg. Besides, under “read-out: MRT0-∞”, the MRT inf turned out to be 48.1 ± 14.2 h. Besides, the half-life under setting [1] was 33.33 ± 0.25 h.

The molecule `C[C@H](NC(=O)CNC(=O)[C@H](CCCNC(=N)N)NC(=O)CCCCOCCOCCOCCN1C(=O)C=CC1=O)C(=O)N[C@@H](CC(=O)O)C(=O)N[C@@H](CCCNC(=N)N)C(=O)N[C@@H](C)C(=O)NCC(=O)NCC(=O)NCC(=O)NCC(=O)N[C@@H](CCCNC(=N)N)C(=O)NCC(=O)N[C@@H](CC(=O)O)C(=O)O` [X66] (X33-RGADRAGGGGRGD-OH) had an AUC(0-inf) of 27700 ± 7510 ng·h/mL, an MRT inf of 49.6 ± 9.77 h and a clearance of 0.602 mL/min/kg. For the same molecule, the half-life (T1/2β (half-life)) is 34.38 ± 0.25 h.

In turn, `C[C@H](NC(=O)CNC(=O)[C@H](CCCNC(=N)N)NC(=O)CCOCCOCCN1C(=O)C=CC1=O)C(=O)N[C@@H](CC(=O)O)C(=O)N[C@@H](CCCNC(=N)N)C(=O)N[C@@H](C)C(=O)NCC(=O)NCC(=O)NCC(=O)NCC(=O)N[C@@H](CCCNC(=N)N)C(=O)NCC(=O)N[C@@H](CC(=O)O)C(=O)O` [X57] (X32-RGADRAGGGGRGD-OH) had an AUC(0-inf) of 33800 ± 8180 ng·h/mL, an MRT inf of 60.5 ± 10.5 h and a clearance of 0.493 mL/min/kg. In addition, the half-life (T1/2β (half-life)) was 41.93 ± 0.24 h.

`C[C@H](NC(=O)CNC(=O)[C@H](CCCNC(=N)N)NC(=O)COCCOCCOCCOCCOCCN1C(=O)C=CC1=O)C(=O)N[C@@H](CC(=O)O)C(=O)N[C@@H](CCCNC(=N)N)C(=O)N[C@@H](C)C(=O)NCC(=O)NCC(=O)NCC(=O)NCC(=O)N[C@@H](CCCNC(=N)N)C(=O)NCC(=O)N[C@@H](CC(=O)O)C(=O)O` [X77] (X19-RGADRAGGGGRGD-OH) showed an AUC(0-inf) of 34600 ± 8180 ng·h/mL, an MRT inf of 61.9 ± 9.54 h and a clearance of 0.482 mL/min/kg. The same molecule gave a half-life (T1/2β (half-life)) of 42.91 ± 0.25 h.

For `C[C@H](NC(=O)CNC(=O)[C@H](CCCNC(=N)N)NC(=O)Cc1ccc(N2C(=O)C=CC2=O)cc1)C(=O)N[C@@H](CC(=O)O)C(=O)N[C@@H](CCCNC(=N)N)C(=O)N[C@@H](C)C(=O)NCC(=O)NCC(=O)NCC(=O)NCC(=O)N[C@@H](CCCNC(=N)N)C(=O)NCC(=O)N[C@@H](CC(=O)O)C(=O)O` [X37] (X50-RGADRAGGGGRGD-OH), the AUC(0-inf) came out at 27200 ± 7210 ng·h/mL, the MRT inf was 48.7 ± 13.6 h and the clearance was 0.612 mL/min/kg. This molecule also gave a half-life (T1/2β (half-life)) of 33.76 ± 0.28 h.

As for `C[C@H](NC(=O)CNC(=O)[C@H](CCCNC(=N)N)NC(=O)CCCCCCCN1C(=O)C=CC1=O)C(=O)N[C@@H](CC(=O)O)C(=O)N[C@@H](CCCNC(=N)N)C(=O)N[C@@H](C)C(=O)NCC(=O)NCC(=O)NCC(=O)NCC(=O)N[C@@H](CCCNC(=N)N)C(=O)NCC(=O)N[C@@H](CC(=O)O)C(=O)O` [X7] (X57-RGADRAGGGGRGD-OH), the AUC(0-inf) worked out at 34500 ± 6960 ng·h/mL, the MRT inf came out at 61.8 ± 14.3 h and the clearance is 0.485 mL/min/kg. Besides, for the setting “T1/2β (half-life)”, the half-life was 42.83 ± 0.29 h.

Turning to `C[C@H](NC(=O)CNC(=O)[C@H](CCCNC(=N)N)NC(=O)CCCCCCCOCCN1C(=O)C=CC1=O)C(=O)N[C@@H](CC(=O)O)C(=O)N[C@@H](CCCNC(=N)N)C(=O)N[C@@H](C)C(=O)NCC(=O)NCC(=O)NCC(=O)NCC(=O)N[C@@H](CCCNC(=N)N)C(=O)NCC(=O)N[C@@H](CC(=O)O)C(=O)O` [X55] (X76-RGADRAGGGGRGD-OH), the AUC(0-inf) worked out at 24300 ± 8150 ng·h/mL, the MRT inf was determined as 43.5 ± 12.4 h and the clearance was 0.687 mL/min/kg. The molecule further had a half-life (T1/2β (half-life)) of 30.1 ± 0.36 h.

`C[C@H](NC(=O)CNC(=O)[C@H](CCCNC(=N)N)NC(=O)COCCOCCOCCOCCOCCOCCN1C(=O)C=CC1=O)C(=O)N[C@@H](CC(=O)O)C(=O)N[C@@H](CCCNC(=N)N)C(=O)N[C@@H](C)C(=O)NCC(=O)NCC(=O)NCC(=O)NCC(=O)N[C@@H](CCCNC(=N)N)C(=O)NCC(=O)N[C@@H](CC(=O)O)C(=O)O` [X84] (X5-RGADRAGGGGRGD-OH) gave an AUC(0-inf) of 29100 ± 8230 ng·h/mL, an MRT inf of 52.1 ± 10.3 h and a clearance of 0.573 mL/min/kg. Where the note is “T1/2β (half-life)”, the half-life was 36.09 ± 0.28 h.

For `C[C@H](NC(=O)CNC(=O)[C@H](CCCNC(=N)N)NC(=O)CCN1C(=O)C=CC1=O)C(=O)N[C@@H](CC(=O)O)C(=O)N[C@@H](CCCNC(=N)N)C(=O)N[C@@H](C)C(=O)NCC(=O)NCC(=O)NCC(=O)NCC(=O)N[C@@H](CCCNC(=N)N)C(=O)NCC(=O)N[C@@H](CC(=O)O)C(=O)O` [X2] ({Propanoyl(3-maleimido)}-RGADRAGGGGRGD-OH), the AUC(0-inf) (read-out: AUC0-∞) turned out to be 27800 ± 7510 ng·h/mL. Also, where the note is “read-out: CL (converted)”, the clearance was 0.6 mL/min/kg. For the same molecule, the MRT inf (read-out: MRT0-∞) worked out at 49.8 ± 9.73 h. In addition, the half-life under setting [1] was 34.51 ± 0.28 h.

`CSCC[C@H](NC(=O)[C@H](Cc1c[nH]cn1)NC(=O)[C@H](CCC(N)=O)NC(=O)[C@H](CCCNC(=N)N)NC(=O)CCCCCN1C(=O)C=CC1=O)C(=O)N[C@@H](Cc1ccccc1)C(=O)N[C@@H](CO)C(=O)N[C@@H](Cc1c[nH]c2ccccc12)C(=O)N[C@H](C(=O)N[C@@H](CC(C)C)C(=O)N[C@@H](C)C(=O)N[C@@H](CCCNC(=N)N)C(=O)N[C@@H](CC(N)=O)C(=O)N[C@@H](CC(=O)O)C(=O)N[C@@H](CCC(N)=O)C(=O)N[C@@H](CCC(=O)O)C(=O)N[C@@H](CCC(=O)O)C(=O)N[C@@H](CCCNC(=N)N)C(=O)NCC(=O)N[C@@H](CC(=O)O)C(=O)O)C(C)C` [P2] ({Hexanoyl(6-maleimido)}-RQHMFSWVLARNDQEERGD-OH; C-terminus assumed): the “AUC0-∞” value is on record as 0.0350 ± 0.0076 mg/L/h. Also, under setting [1], the half-life was 35.48 ± 0.3 h.

The molecule `C[C@H](NC(=O)CNC(=O)[C@H](CCCNC(=N)N)NC(=O)CCCCCOCCOCCOCCN1C(=O)C=CC1=O)C(=O)N[C@@H](CC(=O)O)C(=O)N[C@@H](CCCNC(=N)N)C(=O)N[C@@H](C)C(=O)NCC(=O)NCC(=O)NCC(=O)NCC(=O)N[C@@H](CCCNC(=N)N)C(=O)NCC(=O)N[C@@H](CC(=O)O)C(=O)O` [X67] (X34-RGADRAGGGGRGD-OH) gave an AUC(0-inf) of 31600 ± 8030 ng·h/mL, an MRT inf of 56.4 ± 11.6 h and a clearance of 0.528 mL/min/kg. The half-life (T1/2β (half-life)) was 39.09 ± 0.28 h.

In the case of `C[C@H](NC(=O)CNC(=O)[C@H](CCCNC(=N)N)NC(=O)CCCCCCCOCCOCCOCCOCCOCCOCCN1C(=O)C=CC1=O)C(=O)N[C@@H](CC(=O)O)C(=O)N[C@@H](CCCNC(=N)N)C(=O)N[C@@H](C)C(=O)NCC(=O)NCC(=O)NCC(=O)NCC(=O)N[C@@H](CCCNC(=N)N)C(=O)NCC(=O)N[C@@H](CC(=O)O)C(=O)O` [X90] (X18-RGADRAGGGGRGD-OH), the AUC(0-inf) was found to be 27600 ± 8160 ng·h/mL, the MRT inf worked out at 49.3 ± 11.5 h and the clearance was 0.605 mL/min/kg. Under “T1/2β (half-life)”, the half-life is 34.18 ± 0.31 h.
